These results are taken from patent publication US6652860B1, “Peptide, apoEp 1.B, compositions and uses thereof” (University of Western Ontario, priority 1997, dated 2003).

Series [1] relates to PU5-1.8 cells. The series can be described thus: DC-like surface marker expression on PU5-1.8 cells (FACS). It is filed as cell-based, murine. The following applies: 100 μg/ml, 24 hr, 10^5 PU5-1.8 cells. The procedure: (§1) 1×10^6 cells were washed with ice cold PBS and resuspended in 25 μl PBS and incubated with 10 μl normal mouse serum and fluorochrome conjugated anti-mouse D11a, CD11b, CD14, MHC class II, CD95, CD62L, CD62E, B7-1, B7-2 and ICAM-1 Pharmingen, Mississauga, Canada) monoclonal antibodies (mAb's) for 45 minutes on ice. endritic cell markers DEC-205, 33D1, CD11c (N418) unconjugated antibodies were imilarly treated, however, following primary antibody incubation,cells were washed 3 times and a secondary goat anti-rat (for 33D1 and DEC-205 ab's) and goat anti-hamster (for CD11c ab) fluorochrome-conjugated antibody was then added for 45 min on ice. Cells were then washed three times. All samples were resuspended in 300 μl PBS and the fluorescence of stained cells was analyzed on a FACScan flow cytometer (Becton Dickinson, Mountain View, Calif.) and data collected was analyzed using Lysis II (Becton-Dickinson) software.
(§2) Morphologically apoEp1.B-treated cells appeared DC-like. This was confirmed this by FACS analysis. Unprimed BALB/c splenocytes and PU5-1.8 cells were incubated for 24 hr with 100 μg/ml apoEp1.B or control peptide apoEp1.D and then stained for FACS analysis.
To assess whether apoEp1.B-induced phenotypic changes are dose-dependent, 10^5 PU5-1.8 cells were incubated for 20 hr with 0 (medium), 1, 10 or 100 μg/ml apoEp1.B in 24-well plates and were then stained for FACS analysis. […]

The subject of series [2] is PU5-1.8 cells. The series can be described thus: DC marker changes (B7-1 FACS) of PU5-1.8 cells incubated with modified apoEp1.B peptides. It is filed as cell-based, murine. The following applies: 20 hours. The procedure:
Murine monocytic PU5-1.8 and J77A1.4 transformed cell lines, human monoblastic leukemia THP-1 and U-937, and murine B cell lymphoma A20 cells were cultured in RPMI 1640 medium (Gibco Laboratories, Grand Island, N.Y.) containing […] 2ME, 10 mM HEPES, 2 mM glutamine, 5.0 IU/ml penicillin streptomycin (Gibco) and 10%. heat inactivated Fetal Bovine Serum (FBS) (Hyclone Laboratories Inc., Logan, Utah)(cRPMI).
as §1, with “software. […]” for “software.”

In series [3] the test system is immune cells. The series can be described thus: Activation and differentiation of immune cells. It is filed as cell-based.
The test system of series [4] is splenocytes. The series can be described thus: Surface marker expression on unprimed splenocytes (FACS). It is filed as cell-based, mice. The following applies: splenocytes (data not shown). The method, then: as §1, §2
There were no changes in the expression of CD16/32 at any time.
Unprimed B6 and NOD splenocytes were incubated with 100 μg/ml apoEp1.B or apoEp1.D to determine whether apoEp1.B was strain-specific. […]

Series [5] relates to BALB/c naive T cells co-cultured with NOD splenocytes. As to the kind of experiment: Mixed leukocyte reaction, T cell allostimulatory activity of treated APC's. It counts as cell-based, mice. The following applies: particularly at 4×10^3 APC's per well. The method, then:
Primary allogeneic MLR was set up with NOD splenocytes as stimulators and nylon wool enriched BALB/c naive T cells as responders. Stimulator cells were pre-incubated for 3 days with different combinations of apoEp1.B, GM-CSF, and PU5-1.8 supernatant containing TNF. Stimulator cells were then treated with mitomycin C (50 μg/ml, 20 min at 37° C.; Sigma) and co-cultured with 4×10^4 responder for 3 days at which time cells were pulsed with 50 μl [^3H]-TdR (0.5 μCi/well) for 24 hr. Cells were harvested (Tomtec) and [^3H]-TdR incorporation was measured on a Microbeta Liquid Scintillation Counter (Wallac). Each bar represents the mean cpm from triplicate cultures.
To measure the T cell allostimulatory or inhibitory ability of these DC's, 4×10^4 enriched BALB/c naive T cells were co-cultured with 40, 400, 4000 and 40,000 mitomycin C-treated NOD splenocytes which had been incubated with various stimualants for 3 d. T cell proliferation was measured following 3 days of co-culture by [^3H]-TdR incorporation. Bars represent the mean of triplicate wells (cpm+/−S.D.). * and ** represent p<0.05 and p<0.001, respectively in 2-way ANOVA's compared to medium alone (nil) controls. […] Upon combining responder T cells with APC, various exogenous factors were added, including 20 μg/ml Con A and 5 μg/ml apoEp1.B. Very little proliferation was detected in wells containing T cells alone or APC alone.

In series [6] the test system is iliofemoral artery of the rat. The series can be described thus: Balloon angioplasty injury model, plaque development in iliofemoral artery. It is filed as in vivo. As to conditions: treated rats. The method, then:
To investigate the role of apoEp1.B peptide in inflammation, particularly in response to arterial injury, a balloon angioplasty injury model which has been well characterized by Dr. Alex Lucas (Lucas et al. 1996 Circ. 94:2898-900) was used. 300 μg/ml of apoEp1 or apoEp1.B peptide were infused intra-arterially immediately prior to angioplasty at the site of injury in the iliofemoral artery of the rat. Positive control SERP-1 and negative control saline alone were also used. The rats were monitored carefully and euthanized 6 weeks after treatment and iliofemoral arteries were assessed for plaque development by histochemistry.

In series [7] the test system is Unprimed splenocytes, enriched spleen monocytes and monocytic PU5-1.8 and J77A4.1 cell lines. As to the kind of experiment: Dendritic-like cell morphology in vitro. It is filed as cell-based, BALB/c mice. The following applies: after 2 hr, optimally at 100 μg/ml. The method, then:
Unprimed splenocytes, enriched spleen monocytes and monocytic PU5-1.8 and J77A4.1 cell lines from BALB/c mice were incubated with 0, 1, 10, or 100 μg/ml apoEp1.B (239-252) or negative control apoEp1.D (236-249) peptide to assess activity. […] After 24 hr, morphologically these cells appeared less rounded, more granular.

Where no end group is shown, it is not given here.

As for “AQQIRLQAEAFQAR (listed as Homo sapiens) [human apoEp1.B]”, in series [1], the “cell clustering and marker increase compared to murine apoEp1.B” value is recorded as “to a lesser degree”. Also, the “effect on surface marker changes compared to apoEp1.B” value in series [2] (100 μg/ml, PU5-1.8 cells) is reported as “slightly reduced effect”.
With “EEQ TQQ IRL QAE IFQ AR (EEQTQQIRLQAEIFQAR; Murine) [apoEp1]”, the “induces activation and differentiation of immune cells” value in series [3] is “does not induce DC's”. In series [4], the CD40 expression result is on record as “increase in CD40” and the L-selectin expression result is recorded as “decrease in L-selectin”. For the same substance, the “DC Marker Changes” value in series [2] (Table 1 elongations and truncations, 100 μg/ml peptide, 10^5 PU5-1.8 cells, B7-1 stain, FACS) is given as “slight”.
Take “GM-CSF: cytokine used to pre-incubate stimulator cells in MLR”: the “allostimulation after APC pre-incubation” value in series [5] was “dramatic increase in allostimulation”.
With “TQQIRLQAEIFQAR [apoEp1.B, TQQIRLQAEIFQAR]”, the adverse effects result in series [6] is “No adverse effects were observed”.
Take “apoE: Human plasma VLDL purified apoE (Calbiochem) was used as native apoE”: in series [3], the “induces activation and differentiation of immune cells” value is “not”.
Consider “apoEp1.D: negative control apoEp1.D (236-249) peptide (VAEVRAKLEEQAQQ; UniProt P02649 254-267, looked up, fragment)”, for which, in series [7], the “detachment from plastic plates and aggregation in suspension” value is on record as “not”.
